In publication PMC7802075 (ACS Infectious Diseases, 2020):
“Also recorded” adds a separate entry of the source. Where a name gives a salt, the structure may show the parent alone. Read-outs that look alike come from different tables or passages of the source.

Tests used:
[1] = target: T1, LmjIPCS (inositol phosphorylceramide synthase from L. major) (Leishmania major, UniProt E9AFX2); test: biochemical; type: biochemical; design: inhibition: dose or concentration left out as unconfirmed; conditions: for inhibition: read-out: inhibition LmjIPCS
T1 sequence (E9AFX2 1-338): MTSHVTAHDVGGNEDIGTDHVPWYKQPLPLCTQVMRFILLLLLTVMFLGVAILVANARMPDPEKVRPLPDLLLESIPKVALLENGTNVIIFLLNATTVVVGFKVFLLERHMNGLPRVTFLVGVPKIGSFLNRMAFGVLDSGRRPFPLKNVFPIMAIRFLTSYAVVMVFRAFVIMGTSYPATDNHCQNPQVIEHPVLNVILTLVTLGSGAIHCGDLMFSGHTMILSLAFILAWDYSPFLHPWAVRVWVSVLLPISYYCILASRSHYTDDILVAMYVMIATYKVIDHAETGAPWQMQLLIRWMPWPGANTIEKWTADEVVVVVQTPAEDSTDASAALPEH

[2] = tested on: clemastine fumarate-resistant L. major promastigotes (cl.C and cl.D); type: cell-based, Leishmania major
[3] = in vivo; cited from earlier work
[4] = tested on: L. amazonensis intracellular amastigotes in BMDM from C57BL/6 WT or P2X7R KO mice
[5] = in vivo; cited from earlier work; remark: listed apart in the source
[6] = tested on: BMDM uninfected macrophages, nitrite formation; test: Nitric oxide assay (Griess) in uninfected macrophages; type: cell-based, mouse; conditions: serial dilutions, 48 h
Protocol: The release of nitric oxide was measured in the culture supernatant by the Griess method, as described previously.[81] The absorbance was measured at 570 nm, and the nitrite concentration was determined using a standard curve of sodium nitrite (0 to 50 μM). The positive control was macrophages incubated with 1 μg mL^–1 LPS (Sigma-Aldrich, Brazil) and 10% conditioned medium of lymphocytes as a source of IFN. Negative controls were cells treated with DMSO and untreated cells.

[7] = tested on: wild type Leishmania major promastigotes; type: cell-based
[8] = in vivo; cited from earlier work; remark: listed apart in the source
[9] = tested on: L. major (FV1) promastigotes; test: Antipromastigote resazurin assay, L. major (FV1) wild type; type: cell-based, Leishmania major
[10] = tested on: Leishmania species (L. major, L. amazonensis, L. donovani, L. infantum); test: Dose response positive control, each Leishmania species; type: cell-based, Leishmania spp.; conditions: for each species
Protocol: […]. Resazurin solution (10 μL) was then added and the plate, incubated at 26 °C for 4 h prior to measurement using a fluorescence plate reader (Ex555/Em585). EC50 values were calculated using sigmoidal regression analysis (GraphPad Prism).
[…]. After 24 h of infection, serial dilutions of the test compounds in medium were added and the slides were incubated at 37 °C and 5% CO2 for 5 days (L. major) or 2 days (L. amazonensis). Amphotericin B and miltefosine were used as controls. At the end, cells were fixed with methanol and stained with Giemsa solution, and the intracelular amastigotes were counted using a light microscope. Results were expressed as the percentage reduction of intracellular amastigotes (compared with untreated control wells). EC50 values were calculated using sigmoidal regression analysis (GraphPad Prism).

[11] = tested on: L. major add-back (AB) line promastigotes [pXNEO LmLCB2]; test: microbe, parasite or virus in culture; type: cell-based; conditions: Leishmania major, 48 h
[12] = tested on: L. major ΔLmjLCB2 mutant promastigotes; test: microbe, parasite or virus in culture; type: cell-based; conditions: Leishmania major; sphingolipid-free mutant, 48 h; read-out: EC50 ΔLmjLCB2 parasites
[13] = NINDS set screen against L. major promastigotes, single concentration printed as 10mM

Structure (SMILES): CCCCCCCCCCCCCCCCOP(=O)([O-])OCC[N+](C)(C)C [miltefosine, reference compound]
- inhibition [1]: 3.35%
- cross-resistance in clemastine fumarate-resistant L. major clones [2]: no evidence for cross-resistance

Structure (SMILES): CN1CCC[C@@H]1CCO[C@](C)(c1ccccc1)c1ccc(Cl)cc1 [clemastine fumarate 1, clemastine fumarate]
- oral LD50 (rat) [3]: 3550 mg.kg^–1
- effect of addition of extracellular ATP, P2X7R KO macrophages [4]: did not show any effect
- oral LD50 (mouse) [5]: 730 mg.kg^–1
- nitrite formation (NO levels) [6]: no significant effect
- nitrite formation (NO levels) ([6]; listed as clemastine): statistically non-significant
- cell density [7]: no change in cell density
- volume of distribution [8]: 9.5 ± 3.8 L kg^–1

Structure (SMILES): N=C(N)c1ccc(OCCCCCOc2ccc(C(=N)N)cc2)cc1 [pentamidine 9, pentamidine, reference compound]
- 10mM inhibition L. major [9]: 59%
- ED50 vs L. major [9]: 2050 µM
- cross-resistance in clemastine fumarate-resistant L. major clones [2]: no evidence for cross-resistance; also recorded: statistically significant hypersensitivity

Structure (SMILES): C[C@@H]1[C@H](O)[C@@H](C)/C=C/C=C/C=C/C=C/C=C/C=C/C=C/[C@H](O[C@@H]2O[C@H](C)[C@@H](O)[C@H](N)[C@@H]2O)C[C@@H]2O[C@](O)(C[C@@H](O)C[C@@H](O)[C@H](O)CC[C@@H](O)C[C@@H](O)CC(=O)O[C@H]1C)C[C@H](O)[C@H]2C(=O)O [amphotericin B]
- 20mM inhibition LmjIPCS [1]: 41%
- EC50 [10]: 0.027 ± 0.003 µM
- cross-resistance in clemastine fumarate-resistant L. major clones [2]: no evidence for cross-resistance

Structure (SMILES): NC[C@@H]1O[C@H](O[C@H]2[C@@H](O)[C@H](O[C@@H]3[C@@H](O)[C@H](N)C[C@H](N)[C@H]3O[C@H]3O[C@H](CO)[C@@H](O)[C@H](O)[C@H]3N)O[C@@H]2CO)[C@H](N)[C@@H](O)[C@@H]1O [paromomycin, reference compound]
- inhibition [1]: -17%
- cross-resistance in clemastine fumarate-resistant L. major clones [2]: no evidence for cross-resistance

Structure (SMILES): Cc1cc(C(C)(C)C)c(O)c(C)c1CC1=NCCN1 [OXYMETAZOLINE]
- 20mM inhibition LmjIPCS ([1]; NINDS set screen, single concentration printed as 20mM): 75%
- 10mM inhibition L. major [9, 13]: <5%

Structure (SMILES): C[C@]12CC[C@@H]3c4ccc(O)cc4CC[C@H]3[C@@H]1CC[C@@H]2OC(=O)CCC1CCCC1 [ESTRADIOL CYPIONATE]
- 20mM inhibition LmjIPCS [1]: 83%
- 10mM inhibition L. major [9, 13]: <5%

Structure (SMILES): CCCCCCCCCCCCCCCC[N+](C)(C)C [CETRIMONIUM]
- 20mM inhibition LmjIPCS [1]: 75%
- 10mM inhibition L. major [9, 13]: <5%

Structure (SMILES): CC(CN(C)C)CN1c2ccccc2Sc2ccccc21 (stereo not shown) [TRIMEPRAZINE]
- 20mM inhibition LmjIPCS [1]: 71%
- 10mM inhibition L. major [9, 13]: <5%

Structure (SMILES): C[C@@H]1C[C@@H]([C@H](O)CC2CC(=O)NC(=O)C2)C(=O)[C@@H](C)C1 [cycloheximide, reference compound]
- inhibition at 20000 µM ([1]; read-out: 20mM inhibition LmjIPCS): 9%
- EC50 [11]: 0.02 µM
- EC50 ([9]; Leishmania major, FV1 WT, 48 h, compared with mutant lines, read-out: EC50 wild type L. major promastigotes): 0.02 µM
- EC50 [12]: 0.02 µM

Structure (SMILES): Cc1cc(N)c2ccccc2[n+]1CCCCCCCCCC[n+]1c(C)cc(N)c2ccccc21
- 20mM inhibition LmjIPCS [1]: 72%
- 10mM inhibition L. major [9, 13]: <5%
